From patent US10183912B2, “HDMX inhibitors and their use for cancer treatment” (priority 2014, dated 2019)
pIC50: −log10 of the molar value. Like-named read-outs stand apart in the source and are kept apart here. Values belong to the molecule of their own block, whether it stands above or below them.

Key:
[1] = biological target: T1, HDMX (Homo sapiens, UniProt O15151); experiment: Surface plasmon resonance binding to immobilized recombinant HDMX; conditions: doses up to 12.5 μM
T1 sequence (O15151 1-490): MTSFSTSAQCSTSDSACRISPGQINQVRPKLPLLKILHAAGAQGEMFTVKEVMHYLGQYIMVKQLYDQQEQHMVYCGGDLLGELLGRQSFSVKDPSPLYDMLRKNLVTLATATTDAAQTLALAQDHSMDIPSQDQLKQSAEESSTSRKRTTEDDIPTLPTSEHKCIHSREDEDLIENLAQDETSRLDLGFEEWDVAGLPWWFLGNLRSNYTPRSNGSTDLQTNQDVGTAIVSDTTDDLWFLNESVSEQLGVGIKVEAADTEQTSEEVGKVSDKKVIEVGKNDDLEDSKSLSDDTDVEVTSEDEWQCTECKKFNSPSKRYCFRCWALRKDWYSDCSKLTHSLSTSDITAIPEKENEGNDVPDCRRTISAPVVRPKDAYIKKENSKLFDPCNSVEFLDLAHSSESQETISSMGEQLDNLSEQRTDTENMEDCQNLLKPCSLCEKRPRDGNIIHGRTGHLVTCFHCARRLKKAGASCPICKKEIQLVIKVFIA

[2] = biological target: T1, HDMX; experiment: Spectral (absorbance) studies after size exclusion chromatography with HDMX; format: binding; conditions: absorbance pattern after removal of free compound
[3] = biological target: T2, GST-HDMX (Homo sapiens, UniProt O15151); conditions: immunoprecipitation / streptavidin pull-down
T2 sequence (O15151 1-490): T1 sequence (O15151 1-490)

[4] = tested on: HCT116 p53-wild-type cells; experiment: Cell cycle analysis by PI staining, HCT116 p53-wild-type cells; format: cell-based; conditions: after 24 hr of treatment with CTX1 (2 μM); decrease from 20%
[5] = tested on: HCT116 p53-null cells; experiment: Cell cycle analysis by PI staining, HCT116 p53-null cells; format: cell-based; conditions: after 24 hr of treatment with CTX1 (2 μM); reduction from 25%
[6] = tested on: primary human AML cells; experiment: Survival of NSG mice injected with primary human AML cells; format: in vivo
[7] = biological target: HDM2/p53 (Homo sapiens, UniProt Q00987); experiment: ELISA of recombinant HDM2/p53 interaction; format: biochemical
[8] = tested on: IMR90 cells; experiment: Cell death (trypan blue) in IMR90 fibroblast model with HDMX, HDM2 or shp53; format: cell-based; conditions: 72 hr
[9] = tested on: GST-FXR; format: binding; conditions: immunoprecipitation / streptavidin pull-down
[10] = tested on: HCT116 p53-wild type cells; experiment: Annexin-V staining for apoptosis, HCT116 p53-wild type cells; format: cell-based; conditions: combination of CTX1 (3 μM) and nutlin-3 (5 μM), 72 hr
[11] = tested on: HCT116 p53-null cells; experiment: Annexin-V staining for apoptosis, HCT116 p53-null cells; format: cell-based; conditions: combination of CTX1 (3 μM) and nutlin-3 (5 μM), 72 hr
[12] = tested on: MCF7 cells; conditions: CTX1 3 μM
[13] = tested on: OCI cell line; experiment: IC50 / cell killing activity on OCI cell line; format: cell-based
[14] = biological target: T3, HDMX/p53 (Homo sapiens, UniProt O15151); experiment: ELISA of recombinant HDMX/p53 interaction; format: biochemical
T3 sequence (O15151 1-490): T1 sequence (O15151 1-490)

[15] = biological target: T4, P53-HDMX (Homo sapiens, UniProt O15151); experiment: Co-immunoprecipitation of P53 and HDMX; format: biochemical; conditions: compared to DMSO and Nutlin
T4 sequence (O15151 1-490): T1 sequence (O15151 1-490)

[16] = tested on: OCI-AML3 (OCI) cells overexpressing HDMX; experiment: Cell killing of OCI cells overexpressing HDMX versus parental cells; format: cell-based; conditions: 72 hr trypan blue

HDM2/p53, sequence (Q00987 whole entry): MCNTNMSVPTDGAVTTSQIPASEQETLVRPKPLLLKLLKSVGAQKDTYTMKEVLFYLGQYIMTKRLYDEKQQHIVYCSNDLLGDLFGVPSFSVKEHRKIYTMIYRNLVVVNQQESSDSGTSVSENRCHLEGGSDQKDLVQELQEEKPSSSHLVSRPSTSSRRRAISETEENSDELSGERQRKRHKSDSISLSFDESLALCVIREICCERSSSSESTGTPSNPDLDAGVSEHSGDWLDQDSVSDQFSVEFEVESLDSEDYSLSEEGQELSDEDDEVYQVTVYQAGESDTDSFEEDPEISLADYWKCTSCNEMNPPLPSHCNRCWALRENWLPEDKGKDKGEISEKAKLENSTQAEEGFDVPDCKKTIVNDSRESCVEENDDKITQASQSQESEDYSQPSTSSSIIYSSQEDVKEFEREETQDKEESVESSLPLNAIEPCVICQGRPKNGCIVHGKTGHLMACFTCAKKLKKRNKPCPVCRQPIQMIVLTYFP

- binding to HDMX using SPR [1]: did not demonstrate any binding
- binding to HDMX by spectral studies [2]: not observed
SMILES: Nc1c2ccccc2nc2ccccc12 [9-AA, 9-aminoacridine]

SMILES: O=C(O)CCCC[C@@H]1SC[C@@H]2NC(=O)N[C@@H]21 [Biotin]
- direct interaction with GST-HDMX [3]: not to bind with HDMX

SMILES: N#Cc1c2ccc(N)cc2nc2cc(N)ccc12 [CTX1]
- S phase [4]: 4%
- S phase [5]: 15%
- survival time ([6]; CTX1 (30 mg/kg i.p.) in combination with nutlin-3 (200 mg/kg p.o.)): significantly increased survival time
- survival of mice ([6]; single agent, 30 mg/kg i.p.): significantly enhanced the survival
- disruption of HDM2/p53 interaction [7]: not HDM2/p53
- cell death ([8]; HDMX-expressing cells (Vector or HDMX), 1, 2.5 and 5 μM): induced significant p53-dependent cell death
- cell death ([8]; cells with HDM2 overexpression or p53 knocked down by shRNA): not cells in which p53 is inactivated by HDM2 overexpression
- direct interaction with GST-FXR [9]: not unrelated proteins such as GST-FXR
- induction of apoptosis [10]: synergistic induction of apoptosis
- induction of apoptosis [11]: not p53-null cells
- p53 induction [12]: induces p53 rapidly

SMILES: O=[N+]([O-])c1ccc2c(Cl)c3ccc([N+](=O)[O-])cc3nc2c1 [INVA3Z-1-1]
- pIC50 [13]: 4.87

SMILES: Nc1ccc(Nc2c3ccccc3nc3ccccc23)cc1 [INVA3Z-5-2]
- pIC50 ([13]; OCI cell line, read-out: IC 50): 5.33

SMILES: N#Cc1c2ccc([N+](=O)[O-])cc2nc2cc([N+](=O)[O-])ccc12 [INVA3Z-6-1]
- pIC50 [13]: 4.85

SMILES: N#Cc1c2ccccc2nc2ccccc12 [INVA3Z-6-3]
- pIC50 ([13]; OCI cell line, read-out: IC 50): 4.87

SMILES: O=S(=O)(CCCOCc1ccccc1)Nc1ccc(Nc2c3ccccc3nc3ccccc23)cc1 [INVA3Z-10-1]
- pIC50 ([13]; OCI cell line, read-out: IC 50): 5.01

SMILES: [N-]=[N+]=NCCCS(=O)(=O)Nc1ccc(Nc2c3ccccc3nc3ccccc23)cc1 [INVA3Z-13-1]
- pIC50 ([13]; OCI cell line, read-out: IC 50): 5.00

SMILES: O=C(CCl)Nc1c2ccccc2nc2ccccc12 [INVA3Z-17-2]
- pIC50 ([13]; OCI cell line, read-out: IC 50): 4.87

SMILES: OCCNc1ccc(Nc2c3ccccc3nc3ccccc23)cc1 [INVA3Z-19-1]
- pIC50 ([13]; OCI cell line, read-out: IC 50): 5.24

SMILES: O=[N+]([O-])c1ccc2c(Cl)c3ccccc3nc2c1 [INVA3Z-28-1]
- pIC50 ([13]; OCI cell line, read-out: IC 50): 5.11

SMILES: ClCCN(CCCl)c1c2ccccc2nc2ccccc12 [INVA3Z-29-1]
- pIC50 [13]: < 5.10

SMILES: N#Cc1ccc(Nc2c3ccccc3nc3ccccc23)cc1 [INVA3Z-29-2]
- pIC50 ([13]; OCI cell line, read-out: IC 50): < 5.10

SMILES: O=C(CCCCC1SCC2NC(=O)NC21)Nc1ccc(Nc2c3ccccc3nc3ccccc23)cc1 (centres unmarked) [INVA3Z-31-1]
- pIC50 ([13]; read-out: IC 50): 4.92

SMILES: Nc1ccc(Nc2c3ccccc3nc3cc([N+](=O)[O-])ccc23)cc1 [INVA3Z-32-1]
- pIC50 ([13]; OCI cell line, read-out: IC 50): 5.32

SMILES: Nc1ccc(Nc2c3ccccc3nc3cc(N)ccc23)cc1 [INVA3Z-32-2]
- pIC50 ([13]; OCI cell line, read-out: IC 50): 5.33

SMILES: CC(=O)Nc1ccc(Nc2c3ccccc3nc3ccccc23)cc1 [INVA3Z-36-1]
- pIC50 ([13]; OCI cell line, read-out: IC 50): 5.31

SMILES: Nc1cccc(Nc2c3ccccc3nc3ccccc23)c1 [INVA3Z-38-1]
- pIC50 ([13]; OCI cell line, read-out: IC 50): 4.93

SMILES: CC(=O)Nc1cccc(Nc2c3ccccc3nc3ccccc23)c1 [INVA3Z-39-1]
- pIC50 ([13]; OCI cell line, read-out: IC 50): 4.92

SMILES: CC(=O)Nc1ccc2c(Cl)c3ccccc3nc2c1 [INVA3Z-40-1]
- pIC50 ([13]; OCI cell line, read-out: IC 50): 4.88

SMILES: CC(=O)Nc1ccc2c(Nc3ccc(N)cc3)c3ccccc3nc2c1 [INVA3Z-40-2]
- pIC50 ([13]; OCI cell line, read-out: IC 50): 4.86

SMILES: [O-][n+]1c2ccccc2c(Cl)c2ccccc21 [INVA3Z-41-1]
- pIC50 ([13]; OCI cell line, read-out: IC 50): < 4.82

SMILES: Nc1ccc(Nc2c3ccccc3[n+]([O-])c3ccccc23)cc1 [INVA3Z-41-2]
- pIC50 ([13]; OCI cell line, read-out: IC 50): 4.84

SMILES: Nc1ccc(Nc2c3ccc([N+](=O)[O-])cc3nc3cc([N+](=O)[O-])ccc23)cc1 [INVA3Z-42-1]
- pIC50 ([13]; read-out: IC 50): 6.89

SMILES: Nc1ccc2cc3ccc(N)c(I)c3nc2c1 [INVA3Z-46-2]
- pIC50 ([13]; OCI cell line, read-out: IC 50): 5.10

SMILES: O=C(CCCCC1SCC2NC(=O)NC21)Nc1ccc(Nc2c3ccc([N+](=O)[O-])cc3nc3cc([N+](=O)[O-])ccc23)cc1 (centres unmarked) [INVA3Z-48-2]
- pIC50 [13]: 5.09

SMILES: CC(=O)Nc1ccc(Nc2c3ccc([N+](=O)[O-])cc3nc3cc([N+](=O)[O-])ccc23)cc1 [INVA3Z-50-2]
- pIC50 [13]: 5.85
- disruption of HDMX/p53 interaction [14]: Identical results were obtained
- disruption of HDM2/p53 interaction [7]: Identical results were obtained
- disruption of P53-HDMX protein interaction [15]: disrupts

SMILES: Nc1ccc2cc3ccc(N)c(-c4ccccc4)c3nc2c1-c1ccccc1 [INVA3Z-52-2]
- pIC50 ([13]; OCI cell line, read-out: IC 50): 5.47

SMILES: Nc1ccc2cc3ccc(N)c(-c4ccccc4)c3nc2c1I [INVA3Z-52-3]
- pIC50 ([13]; OCI cell line, read-out: IC 50): 5.11

SMILES: [N-]=[N+]=Nc1c2ccccc2nc2ccccc12 [INVA3Z-55-1]
- pIC50 ([13]; OCI cell line, read-out: IC 50): 5.49

SMILES: O=[N+]([O-])c1ccc2c(Cl)c3cc([N+](=O)[O-])ccc3nc2c1 [INVA3Z-58-1]
- pIC50 [13]: < 4.82

SMILES: Nc1ccc(Nc2c3ccccc3nc3ccccc23)c(N)c1 [INVA3Z-61-2]
- pIC50 ([13]; OCI cell line, read-out: IC 50): 5.37

SMILES: Cc1c([N+](=O)[O-])ccc2c(Cl)c3ccc([N+](=O)[O-])cc3nc12 [INVA3Z-63-1]
- pIC50 [13]: < 4.82

SMILES: Cc1c([N+](=O)[O-])ccc2c(Nc3ccc(N)cc3)c3ccc([N+](=O)[O-])cc3nc12 [INVA3Z-63-2]
- pIC50 [13]: < 4.82

SMILES: Cc1ccc2nc3cc([N+](=O)[O-])ccc3c(Nc3ccc(N)cc3)c2c1[N+](=O)[O-] [INVA3Z-65-2]
- pIC50 [13]: 4.94

SMILES: Nc1ccc(Nc2c3ccc([N+](=O)[O-])cc3nc3cc([N+](=O)[O-])ccc23)cc1N [INVA3Z-66-1]
- pIC50 [13]: < 4.82

SMILES: Nc1ccn([C@@H]2O[C@H](CO)[C@@H](O)[C@@H]2O)c(=O)n1 [cytarabine, reference compound]
- efficacy in this model system ([6]; standard AML therapeutic): does not demonstrate efficacy

SMILES: COc1ccc(C2=N[C@@H](c3ccc(Cl)cc3)[C@@H](c3ccc(Cl)cc3)N2C(=O)N2CCNC(=O)C2)c(OC(C)C)c1 [nutlin-3]
- sensitivity to cell killing versus parental cells [16]: reduced activity
